The values that follow come from article PMC8079061 (Pharmaceutical Biology, 2021).

For data set [1] the following is noted: dogs, oral dose of 0.3 mg/kg poziotinib; ref Kim et al. [2013]; cited from earlier work.
The format of data set [2] is in vivo, Sprague–Dawley rats.
The conditions of data set [3]: patients, combined with paclitaxel and trastuzumab; ref Kim TY et al. [2019]; cited from earlier work.
Another data set deals with recombinant human CYP3A4 (Homo sapiens, UniProt P08684). The data set can be described thus: Inhibition of poziotinib metabolism. The data set is classed as in vitro ADME. The note with it: CYP3A4, stated in abstract.
Chain of recombinant human CYP3A4 (P08684 whole entry): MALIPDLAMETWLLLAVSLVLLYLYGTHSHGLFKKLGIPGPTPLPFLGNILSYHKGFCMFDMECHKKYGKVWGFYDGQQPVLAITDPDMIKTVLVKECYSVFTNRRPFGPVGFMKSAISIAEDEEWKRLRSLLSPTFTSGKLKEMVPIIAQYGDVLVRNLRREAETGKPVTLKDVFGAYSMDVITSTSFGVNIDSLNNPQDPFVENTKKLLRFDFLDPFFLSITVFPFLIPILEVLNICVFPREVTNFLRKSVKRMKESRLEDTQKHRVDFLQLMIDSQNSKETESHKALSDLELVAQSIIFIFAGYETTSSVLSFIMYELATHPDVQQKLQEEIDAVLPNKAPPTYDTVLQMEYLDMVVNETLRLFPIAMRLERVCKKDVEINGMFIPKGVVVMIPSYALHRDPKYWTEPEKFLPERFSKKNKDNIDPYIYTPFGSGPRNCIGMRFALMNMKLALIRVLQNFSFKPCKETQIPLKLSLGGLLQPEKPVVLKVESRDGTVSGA
The conditions of data set [4]: healthy volunteers, coadministered with paroxetine; ref Ruiz-Garcia et al. [2014]; cited from earlier work.
The next data set concerns the target recombinant human CYP2D6 (Homo sapiens, UniProt P10635). The data set can be described thus: Inhibition of poziotinib metabolism. Type of data set: in vitro ADME. The note with it: CYP2D6, stated in abstract.
A further data set concerns RLM. The data set can be described thus: Inhibition of poziotinib metabolism. The data set is classed as in vitro ADME, rat.
Another data set concerns HLM. The data set can be described thus: Inhibition of poziotinib metabolism. Type of data set: in vitro ADME, human.
[5] abbreviates: rat, preadministered with dacomitinib (10 mg/kg) for two weeks.

Chain of recombinant human CYP2D6 (P10635 whole entry): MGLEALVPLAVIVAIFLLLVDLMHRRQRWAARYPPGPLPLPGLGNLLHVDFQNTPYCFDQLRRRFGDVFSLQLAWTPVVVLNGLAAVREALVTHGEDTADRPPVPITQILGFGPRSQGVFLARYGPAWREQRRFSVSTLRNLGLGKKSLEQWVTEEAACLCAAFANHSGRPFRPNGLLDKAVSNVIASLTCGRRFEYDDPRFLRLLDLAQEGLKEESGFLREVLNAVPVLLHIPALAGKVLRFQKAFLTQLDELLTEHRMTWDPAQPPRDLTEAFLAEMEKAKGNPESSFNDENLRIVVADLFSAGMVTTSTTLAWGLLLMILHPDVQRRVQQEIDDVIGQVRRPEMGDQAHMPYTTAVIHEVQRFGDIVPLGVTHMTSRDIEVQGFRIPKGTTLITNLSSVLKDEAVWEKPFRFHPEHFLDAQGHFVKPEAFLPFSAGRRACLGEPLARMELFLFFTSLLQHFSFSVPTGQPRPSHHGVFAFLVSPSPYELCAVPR

As for `C=CC(=O)N1CCC(Oc2cc3c(Nc4ccc(Cl)c(Cl)c4F)ncnc3cc2OC)CC1` [poziotinib, Poziotinib], in data set [1], the Tmax (usually the time from dosing to the highest level) was 0.40 to 1.00 h and the t1/2 was 3.40 to 5.40 h. In addition, the “delay of Tmax of poziotinib after pre-treatment with dacomitinib” value in data set [2] (rat) was about 3 h. For the same molecule, the “increase of AUC(0–t) of poziotinib, test group vs control group” value in data set [2] (rat, dacomitinib pre-treatment two weeks, p < 0.01) is reported as 1.6 fold. In data set [2] (setting [5]), the “increase of Tmax of poziotinib, test group vs control group” value stood at 1.3 fold and the “increase of t1/2 of poziotinib, test group vs control group” value came out at 1.6 fold. Further, the adverse effects observed entry in data set [2] (rats, poziotinib 10 mg/kg oral with or without dacomitinib) was “No obvious adverse effects were observed”. In data set [3], the “maximum tolerated dose (MTD)” value is recorded as 8 mg/day.
On to `COc1cc2ncnc(Nc3ccc(F)c(Cl)c3)c2cc1NC(=O)/C=C/CN1CCCCC1` [dacomitinib, Dacomitinib], for which the “mechanism of inhibition of poziotinib metabolism” value on recombinant human CYP3A4 is recorded as “mixed way”; on recombinant human CYP2D6 it was “mixed way”; with RLM, “mixed inhibitor”; with HLM it was “mixed inhibitor”. The “increase of dacomitinib exposure” value in data set [4] was 37%. Also, the Ki (usually the dissociation constant of the complex between target and ligand, obtained from inhibition or displacement) on RLM (M1) was 8.18 µM; on RLM (M2), 47.5 µM; at HLM (M1), 83.7 µM; on HLM (M2), 0.17 µM. Further, the figures for the αKi on RLM (M1), on RLM (M2) and on HLM (M1) were 38.81 µM, 38.07 µM and 93.73 µM, respectively. The Inhibition type result in the data set on RLM (M1, Lineweaver–Burk plot) is “Mixed”; in the data set on RLM (M2, Lineweaver–Burk plot) it was “Mixed”; in the data set on HLM (M1, Lineweaver–Burk plot) it was “Mixed”; in the data set on HLM (M2, Lineweaver–Burk plot) it was “Mixed”.
